The record followed here is patent US20080207622A1, “SOLUBLE EPOXIDE HYDROLASE INHIBITORS” (Arete Therapeutics, Inc., priority 2006, published 2008).

Data set [1] has as its system soluble epoxide hydrolase (sEH). Description: Fluorescent assay for mouse and human soluble epoxide hydrolase (CMNPC substrate). It is filed as biochemical. An excerpt:
Fluorescent Assay for Mouse and Human Soluble Epoxide Hydrolase
Recombinant mouse sEH (MsEH) and human sEH (HsEH) were produced in a baculovirus expression system as previously reported. Grant et al., J. Biol. Chem., 268:17628-17633 (1993); Beetham et al., Arch. Biochem. Biophys., 305:197-201 (1993). The expressed proteins were purified from cell lysate by affinity chromatography. Wixtrom et al., Anal. Biochem., 169:71-80 (1988). Protein concentration was quantified using the Pierce BCA assay using bovine serum albumin as the calibrating standard. The preparations were at least 97% pure as judged by SDS-PAGE and scanning densitometry. They contained no detectable esterase or glutathione transferase activity which can interfere with the assay. The assay was also evaluated with similar results in crude cell lysates or homogenate of tissues.
The IC50s for each inhibitor were determined according to the following procedure:
Cyano(2-methoxynaphthalen-6-yl)methyl (3-phenyloxiran-2-yl)methyl carbonate (CMNPC; Jones P. D. et. al.; Analytical Biochemistry 2005; 343: pp. 66-75)
Bis/Tris HCl 25 mM pH 7.0 containing 0.1 mg/mL of BSA (buffer A) CMNPC at 0.25 mM in DMSO.
Mother solution of enzyme in buffer A (Mouse sEH at 6 μg/mL and Human sEH at 5 μg/mL).
Inhibitor dissolved in DMSO at the appropriate concentration.
In a black 96 well plate, fill all the wells with 150 μL of buffer A.
Add 2 μL of DMSO in well A2 and A3, and then add 2 μL of inhibitor solution in A1 and A4 through A12.
Add 150 μL of buffer A in row A, then mix several time and transfer 150 μL to row B. Repeat this operation up to row H. The 150 μL removed from row H is discarded.
Add 20 μL of buffer A in column 1 and 2, then add 20 μL of enzyme solution to column 3 to 12.
Incubate the plate for 5 minutes in the plate reader at 30° C.
During incubation prepare the working solution of substrate by mixing 3.68 mL of buffer A (4×0.920 mL) with 266 μL (2×133 μL) of substrate solution).
At t=0, add 30 μL of working substrate solution with multi-channel pipette labeled “Briggs 303” and start the reading ([S]final: 5 μM).
Read with ex: 330 nm (20 nm) and em: 465 nm (20 nm) every 30 second for 10 minutes. The velocities are used to analyze and calculate the IC50s.

Usually % Inhibition stands for how much of the control response was suppressed. A low value points to little suppression. In the case of `O=C(Nc1ccc(C(F)(F)F)cc1)Nc1ccc(S(=O)(=O)c2ccccc2)cc1` [Compound 1, 1-(4-Benzenesulfonyl-phenyl)-3-(4-trifluoromethyl-phenyl)-urea], the “% Inhibition” value in data set [1] (Conc. 50 nM) was determined as 92%.
Still for that read-out and setting: as for `CS(=O)(=O)c1ccc(NC(=O)Nc2ccc(C(F)(F)F)cc2)cc1` [Compound 2, 1-(4-Methanesulfonyl-phenyl)-3-(4-trifluoromethyl-phenyl)-urea], the figure is 79%; as for `CS(=O)(=O)c1cccc(NC(=O)Nc2ccc(C(F)(F)F)cc2)c1` [Compound 3, 1-(3-Methanesulfonyl-phenyl)-3-(4-trifluoromethyl-phenyl)-urea], 88%.
For `O=C(Nc1ccccc1)Nc1cccc(S(=O)(=O)CCCN2CCOCC2)c1` [Compound 4, 1-[3-(3-Morpholin-4-yl-propane-1-sulfonyl)-phenyl]-3-phenyl-urea], the “% Inhibition” value in data set [1] (Conc. 500 nM) worked out at 74%.
As a reminder, the melting point is the temperature of the solid-liquid transition. In turn, `COc1ccc(S(=O)(=O)c2ccc(NC(=O)NC34CC5CC(CC(C5)C3)C4)cc2)nn1` [Compound 10, 1-Adamantan-1-yl-3-[4-(6-methoxy-pyridazine-3-sulfonyl)-phenyl]-urea] registered a melting point of 252 to 254 °C. In addition, in data set [1] (Conc. 2000 nM), the “% Inhibition” value was found to be 100%.
